Tests used:
Type in all cases: in vivo
[1] = tested on: Viola tricolor (VIOTR); assay: Pre-emergence herbicide efficacy at 80 g/ha, greenhouse pot test; settings: visual scoring vs untreated control after about 3 weeks
Source text: (§1) Seeds of monocotyledonous and dicotyledonous weed plants and crop plants were placed in plastic or organic planting pots and covered with soil. The compounds of the invention, formulated in the form of wettable powders (WP) or as emulsion concentrates (EC), were then applied to the surface of the covering soil as aqueous suspension or emulsion with addition of 0.5% additive at a water application rate of […] (converted). After the treatment, the pots were placed in a greenhouse and kept under good growth conditions for the test plants. After about 3 weeks, the effect of the preparations was scored visually in comparison with untreated controls as percentages. For example, 100% activity=the plants have died, 0% activity=like control plants. Tables D1 to D12 below show the effects of selected compounds of the general formula (I) according to Table 1 on various harmful plants and an application rate corresponding to 80 g/ha, which were obtained by the experimental procedure mentioned above.

[2] = tested on: Alopecurus myosuroides (ALOMY); assay: as above; settings: visual scoring vs untreated control after about 3 weeks
Source text: as §1

[3] = tested on: Veronica persica (VERPE); assay: as above; settings: visual scoring vs untreated control after about 3 weeks
Source text: as §1

[4] = tested on: Matricaria inodora (MATIN); assay: as above; settings: visual scoring vs untreated control after about 3 weeks
Source text: as §1

[5] = tested on: Abutilon theophrasti (ABUTH); assay: as above; settings: visual scoring vs untreated control after about 3 weeks
Source text: as §1

[6] = tested on: Amaranthus retroflexus (AMARE); assay: as above; settings: visual scoring vs untreated control after about 3 weeks
Source text: as §1

[7] = tested on: Polygonum convolvulus (POLCO); assay: as above; settings: visual scoring vs untreated control after about 3 weeks
Source text: as §1

[8] = tested on: Setaria viridis (SETVI); assay: as above; settings: visual scoring vs untreated control after about 3 weeks
Source text: as §1

[9] = tested on: Alopecurus myosuroides (ALOMY); assay: Post-emergence herbicidal efficacy at 320 g/ha, greenhouse pot test; settings: visual rating vs untreated control after about 3 weeks
Procedure: (§2) Seeds of mono- and dicotyledonous weed plants were placed in plastic pots in sandy loam soil (doubly sown with in each case one species of mono- or dicotyledonous weed plants per pot), covered with soil and cultivated in a greenhouse under controlled growth conditions. 2 to 3 weeks after sowing, the test plants were treated at the one-leaf stage. The compounds of the invention, formulated in the form of wettable powders (WP) or as emulsion concentrates (EC), were applied onto the green parts of the plants as aqueous suspension or emulsion with addition of 0.5% additive at a water application rate of 600 liters per hectare (converted). After the test plants had been kept in the greenhouse under optimum growth conditions for about 3 weeks, the activity of the preparations was rated visually in comparison to untreated controls. For example, 100% activity=the plants have died, 0% activity=like control plants. Tables […] 11 below show the effects of selected compounds of the general formula (I) according to Table 1 on various harmful plants and an application rate corresponding to 320 g/ha, which were obtained by the experimental procedure mentioned above.

[10] = tested on: Veronica persica (VERPE); assay: as above; settings: 320 g/ha, visual rating vs untreated control after about 3 weeks
Procedure: as §2

[11] = tested on: Abutilon theophrasti (ABUTH); assay: as above; settings: visual rating vs untreated control after about 3 weeks
Procedure: as §2

[12] = tested on: Poa annua (POAAN); assay: as above; settings: visual rating vs untreated control after about 3 weeks
Procedure: as §2

[13] = tested on: Bassia scoparia (KCHSC); assay: as above; settings: visual rating vs untreated control after about 3 weeks
Procedure: as §2

[14] = tested on: Amaranthus retroflexus (AMARE); assay: as above; settings: visual rating vs untreated control after about 3 weeks
Procedure: as §2

[15] = tested on: Stellaria media (STEME); assay: as above; settings: visual rating vs untreated control after about 3 weeks
Procedure: as §2

[16] = tested on: Lolium rigidum (LOLRI); assay: Pre-emergence herbicide efficacy at 320 g/ha, greenhouse pot test; settings: visual scoring vs untreated control after about 3 weeks
Source text: (§3) Seeds of mono- and dicotyledonous weed plants were placed in plastic pots in sandy loam soil (doubly sown with in each case one species of mono- or dicotyledonous weed plants per pot) and covered with soil. The compounds of the invention, formulated in the form of wettable powders (WP) or as emulsion concentrates (EC), were then applied onto the surface of the covering soil as aqueous suspension or emulsion with addition of 0.5% additive at a water application rate of 600 liters per hectare (converted). After the treatment, the pots were placed in a greenhouse and kept under good growth conditions for the test plants. After about 3 weeks, the effect of the preparations was scored visually in comparison with untreated controls as percentages. For example, 100% activity=the plants have died, 0% activity=like control plants. Tables C1 to C12 below show the effects of selected compounds of the general formula (I) according to Table 1 on various harmful plants and an application rate corresponding to 320 g/ha, which were obtained by the experimental procedure mentioned above.

[17] = tested on: Alopecurus myosuroides (ALOMY); assay: as above; settings: visual scoring vs untreated control after about 3 weeks
Source text: as §3

[18] = tested on: Veronica persica (VERPE); assay: as above; settings: visual scoring vs untreated control after about 3 weeks
Source text: as §3

[19] = tested on: Matricaria inodora (MATIN); assay: as above; settings: visual scoring vs untreated control after about 3 weeks
Source text: as §3

[20] = tested on: Abutilon theophrasti (ABUTH); assay: as above; settings: visual scoring vs untreated control after about 3 weeks
Source text: as §3

[21] = tested on: Poa annua (POAAN); assay: as above; settings: visual scoring vs untreated control after about 3 weeks
Source text: as §3

[22] = tested on: Bassia scoparia (KCHSC); assay: as above
Source text: as §3

[23] = tested on: Echinochloa crus-galli (ECHCG); assay: as above; settings: visual scoring vs untreated control after about 3 weeks
Source text: as §3

[24] = tested on: Amaranthus retroflexus (AMARE); assay: as above; settings: visual scoring vs untreated control after about 3 weeks
Source text: as §3

[25] = tested on: Stellaria media (STEME); assay: as above; settings: visual scoring vs untreated control after about 3 weeks
Source text: as §3

[26] = tested on: Setaria viridis (SETVI); assay: as above; settings: visual scoring vs untreated control after about 3 weeks
Source text: as §3

[27] = tested on: Viola tricolor (VIOTR); assay: Post-emergence herbicidal efficacy at 80 g/ha, greenhouse pot test; settings: visual rating vs untreated control after about 3 weeks
Procedure: (§4) Seeds of monocotyledonous and dicotyledonous weeds and crop plants were placed in sandy loam in plastic or organic planting pots, covered with soil and cultivated in a greenhouse under controlled growth conditions. 2 to 3 weeks after sowing, the test plants were treated at the one-leaf stage. The compounds of the invention, formulated in the form of wettable powders (WP) or as emulsion concentrates (EC), were then sprayed onto the green parts of the plants as aqueous suspension or emulsion with addition of 0.5% additive at a water application rate of 600 l/ha (converted). After the test plants had been kept in the greenhouse under optimum growth conditions for about 3 weeks, the activity of the preparations was rated visually in comparison to untreated controls. For example, 100% activity=the plants have died, 0% activity=like control plants. Tables B1 to B6 below show the effects of selected compounds of the general formula (I) according to Table 1 on various harmful plants and an application rate corresponding to 80 g/ha, which were obtained by the experimental procedure mentioned above.

[28] = tested on: Amaranthus retroflexus (AMARE); assay: as above; settings: visual rating vs untreated control after about 3 weeks
Procedure: as §4

[29] = tested on: Digitaria sanguinalis (DIGSA); assay: Pre-emergence herbicide efficacy at 320 g/ha, greenhouse pot test; settings: visual scoring vs untreated control after about 3 weeks
Source text: as §3

[30] = tested on: Veronica persica (VERPE); assay: Post-emergence herbicidal efficacy at 80 g/ha, greenhouse pot test; settings: visual rating vs untreated control after about 3 weeks
Procedure: as §4

[31] = tested on: Polygonum convolvulus (POLCO); assay: as above; settings: visual rating vs untreated control after about 3 weeks
Procedure: as §4

[32] = 320 g/ha, visual scoring vs untreated control after about 3 weeks

SMILES | Pre-emergence efficacy against Viola tricolor (VIOTR) [1] | Pre-emergence efficacy against Alopecurus myosuroides (ALOMY) [2] | Pre-emergence efficacy against Veronica persica (VERPE) [3] | Pre-emergence efficacy against Abutilon theophrasti (ABUTH) [5] | Pre-emergence efficacy against Amaranthus retroflexus (AMARE) [6] | Pre-emergence efficacy against Polygonum convolvulus (POLCO) [7] | Pre-emergence efficacy against Setaria viridis (SETVI) [8] | Post-emergence efficacy against Veronica persica (VERPE) [10] | Post-emergence efficacy against Abutilon theophrasti (ABUTH) [11] | Post-emergence efficacy against Bassia scoparia (KCHSC) [13] | Post-emergence efficacy against Amaranthus retroflexus (AMARE) [14] | Post-emergence action against Stellaria media (STEME) [15] | Pre-emergence efficacy against Veronica persica (VERPE) [18] | Pre-emergence efficacy against Matricaria inodora (MATIN) [19] | Pre-emergence efficacy against Abutilon theophrasti (ABUTH) [20] | Pre-emergence efficacy against Amaranthus retroflexus (AMARE) [24] | Pre-emergence efficacy against Stellaria media (STEME) [25] | Pre-emergence efficacy against Setaria viridis (SETVI) [26] | Post-emergence efficacy against Viola tricolor (VIOTR) [27] | Post-emergence efficacy against Amaranthus retroflexus (AMARE) [28] | further results
Cc1cc(C)c(-c2cc(C(F)F)no2)c(Oc2ncc(Cl)cn2)n1 [Example I-1] | 90% | 90% | 90% | 80% | 100% | 90% | 80% | 100% | 90% | 90% | 100% | 100% | 100% | 100% | 100% | 100% | 100% | 100% | 90% | 100% | Pre-emergence efficacy against Matricaria inodora (MATIN) [4]: 100%; Post-emergence efficacy against Alopecurus myosuroides (ALOMY) [9]: 90%; Post-emergence efficacy against Poa annua (POAAN) [12]: 90%; Pre-emergence efficacy against Lolium rigidum (LOLRI) [16]: 90%; Pre-emergence efficacy against Alopecurus myosuroides (ALOMY) [17]: 100%; Pre-emergence efficacy against Poa annua (POAAN) [21]: 100%; Pre-emergence efficacy against Bassia scoparia (KCHSC) [22, 32]: 90%; Pre-emergence efficacy against Echinochloa crus-galli (ECHCG) [23]: 100%
Cc1cc(C)c(-c2cc(C(F)(F)Cl)no2)c(Oc2ncc(Cl)cn2)n1 [Example I-8] | 90% | 90% | 80% | 100% | 100% | 90% | 100% | 100% | 90% | 90% | 100% | 90% | 100% | 100% | 100% | 100% | 100% | 90% | 90% | 100% | Post-emergence efficacy against Alopecurus myosuroides (ALOMY) [9]: 100%; Pre-emergence efficacy against Digitaria sanguinalis (DIGSA) [29]: 100%; Pre-emergence efficacy against Alopecurus myosuroides (ALOMY) [17]: 100%; Pre-emergence efficacy against Poa annua (POAAN) [21]: 100%; Pre-emergence efficacy against Bassia scoparia (KCHSC) [22, 32]: 100%
Cc1cc(C)c(-c2cc(C(F)F)no2)c(Oc2ccc(C#N)cn2)n1 [Example I-292] | 90% | 80% | 90% | – | 100% | – | – | 100% | 90% | 90% | 100% | 100% | 90% | 100% | 90% | 100% | 100% | 90% | 90% | 90% | Post-emergence efficacy against Poa annua (POAAN) [12]: 100%; Pre-emergence efficacy against Bassia scoparia (KCHSC) ([22]; dosage 1280 g/ha in Table C6, visual scoring after about 3 weeks): 100%; Post-emergence efficacy against Veronica persica (VERPE) [30]: 90%
Cc1cc(C)c(-c2cc(C(F)F)no2)c(Oc2ccc(F)cn2)n1 [Example I-293] | 90% | 90% | 80% | 90% | 100% | 80% | 100% | – | – | – | – | – | – | – | – | – | – | – | – | 100% | Pre-emergence efficacy against Matricaria inodora (MATIN) [4]: 100%; Post-emergence efficacy against Polygonum convolvulus (POLCO) [31]: 100%

Reference: patent publication US20230303549A1, “SUBSTITUTED HETEROARYLOXYPYRIDINES, THE SALTS THEREOF AND THEIR USE AS HERBICIDAL AGENTS” (Bayer Aktiengesellschaft, priority 2020, published 2023)
